# Test results as given in ChEMBL document CHEMBL1201862, “PubChem BioAssay data set” (2004).
# Calls of active or inactive are those of the source.
# Legend:
# [1] = Luminescence Cell-Based Dose Retest to Confirm Inhibitors of Cancer Stem Cells. [Related pubchem assays (depositor defined):AID2717, AID2721]; type: functional; details: Homo sapiens
# [2] = Trypanosoma cruzi growth suppression in host cells – NIH3T3 host cells, beta-gal luminescence, confirmation (AID 2044); type: functional, cell-based;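 further: intracellular parasites grown in NIH/3T3 mouse fibroblasts as host cells; luminescent beta-galactosidase reporter signal from transgenic T. cruzi replicating inside host cells; inhibitors lower the luminescence signal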
# [3] = NIH3T3 cell viability loss – ATP luminescence, mouse fibroblasts, counter-screen, dose response (AID 2010); type: functional, cell-based;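 further: cells exposed to compound for about 90 hours before reading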
# [4] = luciferase reporter signal suppression in cells – H4 neuroglioma cells, luminescence, dose response (AID 1990); type: functional, cell-based
# [5] = Luminescence Cell-Based Dose Response HTS to Identify Inhibitors of 5'UTR Stem-Loop Driven Prion Protein mRNA Translation in H4 Neuroglioblastoma Cells. [Related pubchem assays: 1827 (Project Summary), 1813 (Primary HTS)]; type: functional
# [6] = alpha-synuclein stem-loop luciferase translation blockers – H4 neuroglioma cells, luminescence, confirmation (AID 1988); type: functional, cell-based
# [7] = biological target: T1, Heat shock factor protein 1 (Mus musculus, UniProt P38532); assay: decrease of HSF1-responsive luciferase luminescence – cell-based, NIH3T3, dose retest, confirmation (AID 2382); type: functional;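 further: NIH3T3 fibroblasts with HSF1-driven luciferase reporter stressed by proteasome inhibitor MG132; luminescence from HSF1-driven luciferase expression after 8 hours of MG132 stress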
# T1 sequence (P38532 whole entry): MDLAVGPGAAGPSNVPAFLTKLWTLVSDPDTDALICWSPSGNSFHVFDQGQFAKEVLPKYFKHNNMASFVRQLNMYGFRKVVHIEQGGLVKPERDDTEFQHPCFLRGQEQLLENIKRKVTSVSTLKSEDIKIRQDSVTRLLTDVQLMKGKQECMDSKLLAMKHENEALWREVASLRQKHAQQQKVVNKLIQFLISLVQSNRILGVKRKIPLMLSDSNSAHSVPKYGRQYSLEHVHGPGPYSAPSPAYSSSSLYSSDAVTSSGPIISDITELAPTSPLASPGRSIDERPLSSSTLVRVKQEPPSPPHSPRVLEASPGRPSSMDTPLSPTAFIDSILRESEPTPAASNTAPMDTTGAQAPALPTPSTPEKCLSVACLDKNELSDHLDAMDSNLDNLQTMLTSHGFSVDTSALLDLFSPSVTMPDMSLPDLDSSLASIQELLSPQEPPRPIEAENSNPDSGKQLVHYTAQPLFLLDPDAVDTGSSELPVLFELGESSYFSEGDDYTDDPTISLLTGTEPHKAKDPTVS
# [8] = test system: Streptococcus sp. 'group A'; assay: Streptococcus pyogenes SK(-)GAS viability under kanamycin – luminescence, BacTiterGlo, confirmation, counter-screen for streptokinase expression inhibitor project, dose response (AID 1900); type: functional, organism-based
# Streptokinase A = biological target: T2, Streptokinase A (Streptococcus pyogenes serotype M1, UniProt P10520); assay: viability-normalized secreted streptokinase activity reduction – plasminogen activation absorbance, OD405, dose response (AID 1914); type: functional, Streptococcus pyogenes M1 GAS;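 further: secreted streptokinase activity via plasminogen activation per viability signal from cell pellet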
# T2 sequence (P10520 whole entry): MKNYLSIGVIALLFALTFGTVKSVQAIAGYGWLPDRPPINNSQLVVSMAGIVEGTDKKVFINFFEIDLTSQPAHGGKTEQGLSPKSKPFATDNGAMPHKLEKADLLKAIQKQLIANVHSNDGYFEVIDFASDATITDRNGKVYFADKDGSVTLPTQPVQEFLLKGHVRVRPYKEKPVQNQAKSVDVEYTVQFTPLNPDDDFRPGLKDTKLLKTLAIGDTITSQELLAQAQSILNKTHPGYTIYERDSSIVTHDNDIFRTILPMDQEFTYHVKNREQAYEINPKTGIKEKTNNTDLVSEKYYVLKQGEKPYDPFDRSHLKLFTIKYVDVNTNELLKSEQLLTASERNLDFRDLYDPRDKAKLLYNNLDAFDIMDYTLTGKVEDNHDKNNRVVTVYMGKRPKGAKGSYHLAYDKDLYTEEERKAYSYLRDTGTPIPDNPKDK
# Streptococcus = assay: GAS UMAA2166 growth inhibition – luminescence, BacTiterGlo, counter-screen for streptokinase expression inhibitor project, dose response (AID 1915); type: functional, organism-based;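 further: potency for reduction of bacterial viability or growth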
# Cytochrome P450 2C19 = Cytochrome P450 2C19 (Homo sapiens, UniProt P33261); assay: Cytochrome panel assay with activity outcomes. Panel member name: p450-cyp2c19 Compounds with AC50 equal or less than 10 uM are considered active; type: functional
# Sequence of Cytochrome P450 2C19 (P33261 whole entry): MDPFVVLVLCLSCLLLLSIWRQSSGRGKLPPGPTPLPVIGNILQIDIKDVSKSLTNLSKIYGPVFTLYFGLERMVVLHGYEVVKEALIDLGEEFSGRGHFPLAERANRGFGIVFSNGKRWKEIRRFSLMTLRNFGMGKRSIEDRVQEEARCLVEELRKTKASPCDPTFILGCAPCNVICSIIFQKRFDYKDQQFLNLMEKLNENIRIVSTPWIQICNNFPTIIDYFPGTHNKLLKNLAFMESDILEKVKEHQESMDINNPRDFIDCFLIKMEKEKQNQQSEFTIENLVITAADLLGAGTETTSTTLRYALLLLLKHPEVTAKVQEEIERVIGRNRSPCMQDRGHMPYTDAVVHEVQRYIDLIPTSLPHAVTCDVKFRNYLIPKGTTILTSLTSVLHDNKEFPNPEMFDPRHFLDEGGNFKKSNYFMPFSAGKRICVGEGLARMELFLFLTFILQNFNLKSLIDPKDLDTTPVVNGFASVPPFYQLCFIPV
SMILES,EC50 [2],EC50 [3],EC50 [7],other results
Cc1ccc(S(=O)(=O)N(C)c2ccc(OCc3cccc(C)c3)cc2)cc1,,,,AC50 [1]: 0.898 µM (active)
c1ccc(CCn2nnnc2C(c2cccnc2)N2CCN(c3ccccc3)CC2)cc1 (configuration not stated),0.263 µM (active),4.77 µM (active),,
CCOc1ccc(OCC)c(NC(=O)CSc2nc3ccccc3c(=O)n2C)c1,,,,EC50 [4]: 29.5 µM (active); EC50 [5]: 71.4 µM (active); EC50 [6]: 69.6 µM (active)
COc1ccc(C(=O)C2CCCN(Cc3sc(N4CCCC4)nc3Cl)C2)c(OC)c1 (configuration not stated),0.927 µM (active),> 60 µM (not active),,
COc1ccc(OC)c(N(CC(=O)Nc2ccccc2)S(C)(=O)=O)c1,,,> 195 µM (not active),
Cc1cc(C)cc(N2C(=O)CN(Cc3ccccc3)C2=S)c1,,,> 195 µM (not active),
COc1ccc(/C=C/C(=O)c2ccccc2)cc1Cn1nnc2ccccc21,,,,AC50 [1]: 4.11 µM (active)
Cc1cc2c(c(=O)n1Cc1ccc3c(c1)OCO3)C(c1cccnc1)C(C#N)=C(N)O2 (configuration not stated),1.94 µM (active),> 60 µM (not active),,
CCCc1nc2ccccc2c(C(=O)OCC(=O)Nc2ccc(S(=O)(=O)N3CCOCC3)cc2)c1CC,,,,EC50 [8]: 18.1 µM (active); EC50 (Streptokinase A): 26 µM (active); EC50 (Streptococcus): 52.8 µM (active); AC50 [1]: 4.04 µM (active)
COc1cc(C(=O)N2CCN(C(=O)CC(C)C)CC2)cc(OC)c1OC,,,9.31 µM (active),
CCCOc1ccc(Cn2c(=O)oc3ccc(C)cc32)cc1OC,,,> 195 µM (not active),
CC(C)c1ccccc1OCC(O)CN(CC(O)COc1cccc2ccccc12)C(C)C (configuration not stated),3.45 µM (active),> 30 µM (not active),,EC50 [8]: 4.05 µM (active); EC50 (Streptococcus): 7.04 µM (active); AC50 [1]: 2.82 µM (active)
N#C/C(=C(/O)COc1ccccc1)c1nc2ccccc2s1,,,,EC50 [8]: 26.7 µM (active); EC50 (Streptokinase A): 7.55 µM (active); EC50 (Streptococcus): > 150 µM (not active)
Cc1ccc(OCC(=O)Nc2ccccc2C(=O)N2CCCCC2)cc1,,,> 195 µM (not active),
O=C(Nc1cccc(S(=O)(=O)c2cccc(NC(=O)c3ccco3)c2)c1)c1ccco1,0.869 µM (active),> 60 µM (not active),,
Brc1ccccc1-c1nnc2sc(Cc3ccccc3)nn12,,,,EC50 [4]: 64.7 µM (active); EC50 [5]: > 120 µM (not active); EC50 [6]: > 120 µM (not active)
CCOC(=O)C1(Cc2ccccc2)CCCN(CCCn2cccn2)C1 (configuration not stated),,,> 195 µM (not active),
COc1ccc([C@@H]2C[C@@H](c3ccccc3)Oc3c(C)ccc(C(C)C)c32)cc1,,,> 195 µM (not active),
O=C(O)c1ccc(Cl)c(S(=O)(=O)N(Cc2ccccc2)c2ccc(F)cc2)c1,,,,AC50 [1]: 31.2 µM (active)

SMILES,EC50 [2],EC50 [3],EC50 [7],other results
CCCOC(=O)c1ccc(Oc2c(-c3ccc(OCC)cc3O)n[nH]c2C)cc1,,,,EC50 (Streptokinase A): > 150 µM (not active)
CN(Cc1ccccc1)Cc1c[nH]c2ccccc12,0.972 µM (active),> 60 µM (not active),,
Cc1ccc(NC(=O)N(Cc2cccnc2)Cc2ccco2)cc1C,1.39 µM (active),> 60 µM (not active),,
CCc1c(-c2ccccc2)nc2sc3c(c2c1N)CCCC3,2.01 µM (active),> 60 µM (not active),,
Cn1c(CCC(=O)Nc2ccc(N3CCOCC3)cc2)nc(=O)c2ccccc21,,,,AC50 (Cytochrome P450 2C19; read-out: AC50): 35.5 µM (inconclusive)
CC(C)(CNC(=O)c1ccccc1)CNC1=NS(=O)(=O)c2ccccc21,,,,EC50 [8]: > 150 µM (not active); EC50 (Streptokinase A): > 150 µM (not active); EC50 (Streptococcus): > 150 µM (not active)
CCN=C(S)NC1CC2CCCC(C1)N2Cc1ccco1 (configuration not stated),,,,AC50 (Cytochrome P450 2C19; read-out: AC50): 14.1 µM (inconclusive)
Cc1ccc2c(c1)C1CN(C)CCC1N2C(=O)c1cccc(S(=O)(=O)N2CC(C)CC(C)C2)c1 (configuration not stated),0.216 µM (active),> 30 µM (not active),,
Cc1ccc2nc3c(cc(S(=O)(=O)c4ccccc4)c(=N)n3Cc3ccco3)c(=O)n2c1,3 µM (active),> 60 µM (not active),,
O=C(OCc1ccc(COC(=O)c2ccc(O)cc2)cc1)c1ccc(O)cc1,,,,EC50 [8]: 5.67 µM (active); EC50 (Streptokinase A): > 150 µM (not active); EC50 (Streptococcus): 8.51 µM (active)
COc1ccc(OC)c(NC(=O)C2CCCN(S(=O)(=O)c3c(C)nn(C)c3C)C2)c1 (configuration not stated),,,> 195 µM (not active),
CC(C)c1ccc2c(c1)c(SC(C)(C)C)c(CC(C)(C)C(=O)O)n2Cc1ccc(Cl)cc1,,,,EC50 [8]: 1.07 µM (active); EC50 (Streptokinase A): 1.24 µM (active)
COc1ccc(CNC(=O)CCCNC(=O)c2ccc(Cl)cc2)cc1OC,,,> 195 µM (not active),
Cc1ccc(-n2nc3c(N4CCC(C(=O)NCCc5cccs5)CC4)nnc(C)c3c2C)cc1,,,,EC50 [4]: 19.2 µM (active); EC50 [5]: > 120 µM (not active)
Cc1ccc(CCNC(=O)CN=C(S)N(Cc2ccccc2)Cc2cccnc2)cc1,1.28 µM (active),> 60 µM (not active),,
CCCCCSc1nc(C)c(CC(=O)O)c(O)n1,,,> 195 µM (not active),
COc1ccc2nc(N=C(N)N=C(S)Nc3c(C)cccc3C)nc(C)c2c1,,,,EC50 [8]: 21.7 µM (active); EC50 (Streptococcus): > 150 µM (not active)
C/C(=N\NC(=O)CN1CCN(Cc2ccccc2)CC1)c1cccs1,,,> 195 µM (not active),
c1cnc2ccc(C(c3nnnn3C3CCCCC3)N3CCN(C4CCCCC4)CC3)cc2c1 (configuration not stated),8.47 µM (active),4.37 µM (active),,

SMILES,EC50 [2],EC50 [3],EC50 [7],other results
C[C@@]12CC[C@H](O)C[C@@H]1CC[C@H]1[C@@H]2C[C@@H](O)[C@]2(C)[C@@H](C3=CC(=O)OC3)CC[C@]12O,,,,AC50 (Cytochrome P450 2C19): inconclusive
CCC(C)n1c(C)nc2c(c1=O)c1nc3ccccc3nc1n2CCC1=CCCCC1 (configuration not stated),3.7 µM (active),> 60 µM (not active),,
CC(=O)c1cccc(NC(=O)C2CC(=O)N(CCc3ccccc3)C2)c1 (configuration not stated),,,> 195 µM (not active),
CCC(C)Oc1cc(-c2ccnc(Nc3cccc(Cl)c3)n2)ccn1 (configuration not stated),1.7 µM (active),7.53 µM (active),,
CCO/C(O)=C(/C=N/c1ccccc1)[N+](=O)[O-],,,,AC50 (Cytochrome P450 2C19; read-out: AC50): 14.1 µM (inconclusive)
COc1ccc2nc(N=C(N)NC(=S)Nc3c(C)cccc3C)nc(C)c2c1,,,,EC50 (Streptokinase A): 42 µM (inconclusive)
O=C(NCc1ccco1)C1CCN(S(=O)(=O)c2cccc([N+](=O)[O-])c2)CC1,,,> 195 µM (not active),
Cc1cc(Nc2nc(Cl)c(Cl)cc2Cl)n(-c2ccccc2)n1,,,,AC50 [1]: 3.95 µM (active)
CC1C=Cc2ccccc2N1C(=O)c1ccccc1 (configuration not stated),,,> 195 µM (not active),
COc1cc(CNc2ccc(CNc3nc[nH]n3)cc2)ccc1OCc1ccccc1,,,,AC50 [1]: 2.25 µM (active)
O=C(c1cccc(S(=O)(=O)N2CCOCC2)c1)N(Cc1nnc(-c2ccccc2Cl)o1)C1CC1,,,> 195 µM (not active),
Fc1ccc(CO/N=C/C2=C(Cl)c3ccccc3CC2)cc1,,,> 195 µM (not active),EC50 [8]: 6.39 µM (active); EC50 (Streptokinase A): 13.5 µM (active); EC50 (Streptococcus): > 150 µM (not active)
Cc1ccc(C(C)C)c(OCC(=O)NC2CCN(C)CC2)c1,1.21 µM (active),> 60 µM (not active),,
CC1CCCN(CC(O)COCC2COc3ccccc3O2)C1 (configuration not stated),,,,AC50 (Cytochrome P450 2C19; read-out: AC50): 5.01 µM (inconclusive)
CC(C)Oc1cccc(C(=O)NC(=S)Nc2ccccc2)c1,,,> 195 µM (not active),
O=C(Nc1cccc(Cl)c1)Nc1ccccc1-n1ccnc1,0.461 µM (active),> 60 µM (not active),,
CC(C)CCNC(=O)C1CCC(CNS(=O)(=O)c2cccc3nsnc23)CC1 (configuration not stated),> 30 µM (not active),> 30 µM (not active),,
Cc1ccc(OCCCCN2CCCCC2)c(Br)c1,2.16 µM (active),> 60 µM (not active),,
COc1ccc(-c2csc(N(CCc3ccc(OC)c(OC)c3)C(=O)COc3ccccc3)n2)cc1,,,> 195 µM (not active),
